Earlier results, collected in patent US11679093B2, “2-naphthimidamides, analogues thereof, and methods of treatment using same” (priority 2018, dated 2023).

Test system: Influenza A virus (IAV)
Details: fully differentiated mucociliated bronchiolar epithelium isolated from multiple human donors

SMILES: N=C(N)Nc1ccc(C(=O)Oc2ccc3cc(C(=N)N)ccc3c2)cc1 [Nafamostat, 6-carbamimidoylnaphthalen-2-yl 4-guanidinobenzoate]
- antiviral activity: exhibit antiviral activity
